Read-outs that look alike come from different tables or passages of the source.
Tests used:
[1] = system: Hela cell line; test: MTT test of inhibiting tumor cell activity, Hela; details: read-out: Cytotoxic activity (IC50, μM) Hela
Procedure: (§1) 3, cell lines: Hela, BGC823, A549 cell line and normal human hepatocytes which are available from Wu Han boster Co., Ltd.;
(§2) Hela, BGC823, A549 cell line and normal human hepatocytes in logarithmic growth phase are subjected to 1000 rpm centrifugation for 5 min, supernatant is then discarded, moderate medium is suspended, the cell concentration is adjusted to 3.5×10^4/well, the cells were seeded in 96-wells culture plate, and following experimental groups are set:
(§3) a negative control group; 22 test groups with same concentration (ie: groups of Compound (1) to Compound (22)); 2 control groups: groups of podophyllotoxin, 4′-demethylepipodophyllotoxin and etoposide.
(§4) Taking RPMI1640 containing 10% of calf serum as nutrient solution, 0.10 mL of cells per well is incubated under conditions of 37 V, 5% CO2 and saturated humidity for 24 h to nearly be covered, then the nutrient solution is discarded. […] 100 μl of DMSO is added to each well, then vibrated at 37° C. by shaker table for 30 min, then measuring absorbance (OD) at 492 nm, calculating MTT ratio=OD value of drug group/OD value of the negative control group.

[2] = system: BGC823 cell line; test: MTT test of inhibiting tumor cell activity, BGC823; details: read-out: Cytotoxic activity (IC50, μM) BGC823
Procedure: as §1, §2, §3, §4

[3] = system: A549 cell line; test: MTT test of inhibiting tumor cell activity, A549; details: read-out: Cytotoxic activity (IC50, μM) A549
Procedure: as §1, §2, §3, §4

[4] = system: BGC823 cell line
Procedure: as §1, §2, §3, §4

[5] = system: Hela cell line
Procedure: as §1, §2, §3, §4

[6] = system: A549 cell line
Procedure: as §1, §2, §3, §4

[7] = Hela cells, MTT, 48 h cultivation
[8] = BGC823 cells, MTT, 48 h cultivation
[9] = A549 cells, MTT, 48 h cultivation

Molecule	IC50 [1, 7] [µM]	IC50 [2, 8] [µM]	IC50 [3, 9] [µM]	further results
COc1cc(C2c3cc4c(cc3C(Nc3cc(Cl)c(O)c(Cl)c3)C3COC(=O)C23)OCO4)cc(OC)c1OC (stereo not drawn) [Compound 13, 4-N-(2,6-dichloro-4-aminophenol)-4-deoxy-podophyllotoxin]	17.6 ± 2.39	1.58 ± 0.16	9.66 ± 0.35	
COc1ccc(NC2c3cc4c(cc3C(c3cc(OC)c(OC)c(OC)c3)C3C(=O)OCC23)OCO4)cc1F (stereo not drawn) [Compound 3, 4-N-(3-fluoro-4-methoxyaniline)-4-deoxy-podophyllotoxin]	2.57 ± 0.87	3.16 ± 1.11	1.97 ± 0.32	
COc1cc([C@@H]2c3cc4c(cc3[C@H](O)[C@H]3COC(=O)[C@H]23)OCO4)cc(OC)c1OC [podophyllotoxin, reference compound]				IC50 ([1]; Homo sapiens, HeLa, 48 h): 55 µM; IC50 ([2]; Homo sapiens, BGC-823, 48 h): 75 µM; IC50 ([3]; Homo sapiens, A549, 48 h): 67 µM
COc1ccccc1NC1c2cc3c(cc2C(c2cc(OC)c(OC)c(OC)c2)C2C(=O)OCC12)OCO3 (stereo not drawn) [Compound 7, 4-N-(o-aminoanisole)-4-deoxy-podophyllotoxin]	13.4 ± 3.31	6.26 ± 0.36	3.41 ± 0.1	
COc1cc(C2c3cc4c(cc3C(Nc3ccccc3Sc3ccccc3N)C3COC(=O)C23)OCO4)cc(OC)c1OC (stereo not drawn) [Compound 19, 4-N-(2 2′-diaminodiphenylsulfide)-4-deoxy-podophyllotoxin]	2.14 ± 0.21	6.46 ± 0.33	23.2 ± 0.72	
COc1ccccc1NC1c2cc3c(cc2C(c2cc(OC)c(O)c(OC)c2)C2C(=O)OCC12)OCO3 (stereo not drawn) [Compound 8, 4-N-(o-aminoanisole)-4-deoxy-4′-demethylepipodophyllotoxin]	1.72 ± 0.3	5.63 ± 1.2	15.3 ± 0.45	
COc1ccc(Cl)cc1NC1c2cc3c(cc2C(c2cc(OC)c(O)c(OC)c2)C2C(=O)OCC12)OCO3 (stereo not drawn) [Compound 10, 4-N-(4-chloro-2-aminoanisole)-4-deoxy-4′-demethylepipodophyllotoxin]	1.35 ± 0.18	1.61 ± 0.37	3.72 ± 0.41	
COc1cc(C2c3cc4c(cc3C(Nc3ccc(Cc5ccc(N)cc5)cc3)C3COC(=O)C23)OCO4)cc(OC)c1OC (stereo not drawn) [Compound 5, 4-N-(4,4′-diaminodiphenylmethane)-4-deoxy-podophyllotoxin]	7.07 ± 1.63	17.2 ± 0.34	2.32 ± 0.06	
COc1cc(C2c3cc4c(cc3C(Nc3ccccc3C(F)(F)F)C3COC(=O)C23)OCO4)cc(OC)c1O (stereo not drawn) [Compound 22, 4-N-(2-aminobenzotrifluoride)-4-deoxy-4′-demethylepipodophyllotoxin]	5.89 ± 0.48	6.01 ± 0.12	9.72 ± 0.98	
COc1cc(C2c3cc4c(cc3C(Nc3cc(Cl)c(O)c(Cl)c3)C3COC(=O)C23)OCO4)cc(OC)c1O (stereo not drawn) [Compound 14, 4-N-(2,6-dichloro-4-aminophenol)-4-deoxy-4′-demethylepipodophyllotoxin]	14.7 ± 0.42	13.8 ± 1.42	9.41 ± 0.59	
COc1cc(C2c3cc4c(cc3C(Nc3ccc(Cc5ccc(N)cc5)cc3)C3COC(=O)C23)OCO4)cc(OC)c1O (stereo not drawn) [Compound 6, 4-N-(4,4′-diaminodiphenylmethane)-4-deoxy-4′-demethylepipodophyllotoxin]	0.56 ± 0.17	3.52 ± 0.43	2.2 ± 0.25	
COc1cc(C2c3cc4c(cc3C(Nc3ccccc3Sc3ccccc3N)C3COC(=O)C23)OCO4)cc(OC)c1O (stereo not drawn) [Compound 20, 4-N-(2 2′-diaminodiphenylsulfide)-4-deoxy-4′-demethylepipodophyllotoxin]	16.3 ± 0.39	2.17 ± 0.23	1.42 ± 0.12	
COc1cc(C2c3cc4c(cc3C(O)C3COC(=O)C23)OCO4)cc(OC)c1O (stereo not drawn) [4′-demethylepipodophyllotoxin, reference compound]	49	63	52	
COc1cc([C@@H]2c3cc4c(cc3[C@@H](O[C@@H]3O[C@@H]5CO[C@@H](C)O[C@H]5[C@H](O)[C@H]3O)[C@H]3COC(=O)[C@H]23)OCO4)cc(OC)c1O [VP-16, etoposide, reference compound]	13.2 ± 1.65	22.3 ± 2.97	31.1 ± 1.72	
COc1ccc(Cl)cc1NC1c2cc3c(cc2C(c2cc(OC)c(OC)c(OC)c2)C2C(=O)OCC12)OCO3 (stereo not drawn) [Compound 9, 4-N-(4-chloro-2-aminoanisole)-4-deoxy-podophyllotoxin]	8.07 ± 1.81	1.24 ± 0.06	1.71 ± 0.26	
COc1cc(C2c3cc4c(cc3C(Nc3ccccc3C#N)C3COC(=O)C23)OCO4)cc(OC)c1O (stereo not drawn) [Compound 12, 4-N-(o-aminobenzonitrile)-4-deoxy-4′-demethylepipodophyllotoxin]	1.92 ± 1.21	7.91 ± 0.59	11.6 ± 1.63	
4-N—(N,N-dimethylamino metanil)-4-deoxy-podophyllotoxin [Compound 15]	1.33 ± 0.2	2.59 ± 0.21	> 100	
COc1cc(C2c3cc4c(cc3C(Nc3ccccc3C#N)C3COC(=O)C23)OCO4)cc(OC)c1OC (stereo not drawn) [Compound 11, 4-N-(o-aminobenzonitrile)-4-deoxy-podophyllotoxin]	16.9 ± 1.48	> 100	1.02 ± 0.07	
COc1ccc(NC2c3cc4c(cc3C(c3cc(OC)c(O)c(OC)c3)C3C(=O)OCC23)OCO4)cc1F (stereo not drawn) [Compound 4, 4-N-(3-fluoro-4-methoxyaniline)-4-deoxy-4′-demethylepipodophyllotoxin]	1.97 ± 0.16	0.4 ± 0.17	3.04 ± 0.23	
COc1cc(C2c3cc4c(cc3C(Nc3ccc(Cl)c(C)c3)C3COC(=O)C23)OCO4)cc(OC)c1OC (stereo not drawn) [Compound 1, 4-N-(4-chloro-3-methylaniline)-4-deoxy-podophyllotoxin]				IC50 [4]: 0.62 ± 0.13 µM; IC50 [5]: 1.26 ± 0.37 µM; IC50 [6]: 1.75 ± 0.83 µM
CCc1ccc([N+](=O)[O-])cc1NC1c2cc3c(cc2C(c2cc(OC)c(OC)c(OC)c2)C2C(=O)OCC12)OCO3 (stereo not drawn) [Compound 17, 4-N-(2-ethyl-5-nitroaniline)-4-deoxy-podophyllotoxin]	6.01 ± 0.71	4.24 ± 0.79	1.4 ± 0.28	
COc1cc(C2c3cc4c(cc3C(Nc3ccccc3C(F)(F)F)C3COC(=O)C23)OCO4)cc(OC)c1OC (stereo not drawn) [Compound 21, 4-N-(2-aminobenzotrifluoride)-4-deoxy-podophyllotoxin]	2.45 ± 3.04	23.2 ± 0.76	2.11 ± 0.05	
COc1cc(C2c3cc4c(cc3C(Nc3cccc(S(=O)(=O)N(C)C)c3)C3COC(=O)C23)OCO4)cc(OC)c1O (stereo not drawn) [Compound 16, 4-N—(N,N-dimethylaminometanil)-4-deoxy-4′-demethylepipodophyllotoxin]	1.06 ± 0.57	1.52 ± 0.39	2.08 ± 0.26	
